Measurements from the NIST ThermoML archive (doi:10.1016/j.tca.2013.02.010).

What was measured:
[1] = refractive index (Na D-line) (dimensionless); conditions: 298.15 K; 101.33 kPa; Liquid; Standard Abbe refractometry
[2] = 101.33 kPa, Liquid, Pycnometric method
[3] = excess molar enthalpy (molar enthalpy of mixing); xn = mol fraction of the nth substance listed; conditions: 101 kPa, Liquid, Flow calorimetry
[4] = xn = mol fraction of the nth substance listed; conditions: 308.15 K, 101 kPa, Liquid, Direct dilatometry

NC=O [formamide]
Conditions	refractive index
[1]	1.4461

[2]
Conditions	mass density [kg/m3]
298.15 K	1129.04
308.15 K	1120.45

NC=O [formamide] + CC(C)O
[3]
Conditions	excess molar enthalpy [kJ/mol]
298.15 K, x1 = 0.056	0.246
298.15 K, x1 = 0.073	0.308
298.15 K, x1 = 0.099	0.403
298.15 K, x1 = 0.125	0.466
298.15 K, x1 = 0.162	0.56
298.15 K, x1 = 0.2	0.623
298.15 K, x1 = 0.253	0.699
298.15 K, x1 = 0.291	0.731
298.15 K, x1 = 0.329	0.757
298.15 K, x1 = 0.4	0.776
298.15 K, x1 = 0.468	0.772
298.15 K, x1 = 0.537	0.749
298.15 K, x1 = 0.597	0.711
298.15 K, x1 = 0.662	0.657
298.15 K, x1 = 0.702	0.618
298.15 K, x1 = 0.728	0.58
298.15 K, x1 = 0.766	0.529
298.15 K, x1 = 0.812	0.452
298.15 K, x1 = 0.849	0.382
298.15 K, x1 = 0.878	0.322
298.15 K, x1 = 0.901	0.266
298.15 K, x1 = 0.941	0.17
308.15 K, x1 = 0.0666	0.334
308.15 K, x1 = 0.0916	0.432
308.15 K, x1 = 0.1166	0.518
308.15 K, x1 = 0.1501	0.617
308.15 K, x1 = 0.1812	0.692
308.15 K, x1 = 0.229	0.789
308.15 K, x1 = 0.2702	0.846
308.15 K, x1 = 0.3082	0.896
308.15 K, x1 = 0.3666	0.937
308.15 K, x1 = 0.425	0.961
308.15 K, x1 = 0.4958	0.961
308.15 K, x1 = 0.5624	0.937
308.15 K, x1 = 0.629	0.876
308.15 K, x1 = 0.6832	0.803
308.15 K, x1 = 0.7124	0.757
308.15 K, x1 = 0.7503	0.685
308.15 K, x1 = 0.7958	0.585
308.15 K, x1 = 0.8374	0.48
308.15 K, x1 = 0.8708	0.39
308.15 K, x1 = 0.8874	0.337
308.15 K, x1 = 0.9082	0.282
308.15 K, x1 = 0.954	0.141

[4]
Conditions	excess molar volume [m3/mol]
x1 = 0.0455	-3.2e-08
x1 = 0.1021	-6.4e-08
x1 = 0.1327	-7.9e-08
x1 = 0.1725	-1.05e-07
x1 = 0.2155	-1.34e-07
x1 = 0.2692	-1.69e-07
x1 = 0.3269	-2.06e-07
x1 = 0.3535	-2.27e-07
x1 = 0.3867	-2.48e-07
x1 = 0.4245	-2.71e-07
x1 = 0.485	-3e-07
x1 = 0.5191	-3.13e-07
x1 = 0.5729	-3.28e-07
x1 = 0.6237	-3.32e-07
x1 = 0.6951	-3.31e-07
x1 = 0.7543	-3.11e-07
x1 = 0.7907	-2.9e-07
x1 = 0.825	-2.61e-07
x1 = 0.8735	-2e-07
x1 = 0.8999	-1.71e-07
x1 = 0.9331	-1.18e-07
x1 = 0.9745	-5.1e-08

NC=O [formamide] + CCCO
[3]
Conditions	excess molar enthalpy [kJ/mol]
298.15 K, x1 = 0.0624	0.257
298.15 K, x1 = 0.0881	0.343
298.15 K, x1 = 0.1208	0.441
298.15 K, x1 = 0.1479	0.513
298.15 K, x1 = 0.1832	0.588
298.15 K, x1 = 0.2231	0.651
298.15 K, x1 = 0.254	0.695
298.15 K, x1 = 0.3018	0.735
298.15 K, x1 = 0.3775	0.757
298.15 K, x1 = 0.452	0.748
298.15 K, x1 = 0.4832	0.741
298.15 K, x1 = 0.5364	0.702
298.15 K, x1 = 0.5953	0.661
298.15 K, x1 = 0.6672	0.603
298.15 K, x1 = 0.6958	0.573
298.15 K, x1 = 0.7521	0.511
298.15 K, x1 = 0.7958	0.455
298.15 K, x1 = 0.8443	0.382
298.15 K, x1 = 0.8956	0.287
298.15 K, x1 = 0.9208	0.234
298.15 K, x1 = 0.9526	0.151
298.15 K, x1 = 0.9666	0.117
308.15 K, x1 = 0.0582	0.264
308.15 K, x1 = 0.079	0.345
308.15 K, x1 = 0.104	0.431
308.15 K, x1 = 0.1374	0.525
308.15 K, x1 = 0.1624	0.592
308.15 K, x1 = 0.2082	0.688
308.15 K, x1 = 0.2416	0.74
308.15 K, x1 = 0.275	0.782
308.15 K, x1 = 0.3332	0.828
308.15 K, x1 = 0.4124	0.845
308.15 K, x1 = 0.4666	0.852
308.15 K, x1 = 0.5082	0.831
308.15 K, x1 = 0.5666	0.803
308.15 K, x1 = 0.625	0.74
308.15 K, x1 = 0.679	0.686
308.15 K, x1 = 0.725	0.627
308.15 K, x1 = 0.775	0.55
308.15 K, x1 = 0.8166	0.473
308.15 K, x1 = 0.8666	0.367
308.15 K, x1 = 0.9124	0.26
308.15 K, x1 = 0.9416	0.178
308.15 K, x1 = 0.9582	0.128

[4]
Conditions	excess molar volume [m3/mol]
x1 = 0.0615	-3e-08
x1 = 0.1052	-4.3e-08
x1 = 0.165	-6e-08
x1 = 0.1937	-6.9e-08
x1 = 0.2453	-7.8e-08
x1 = 0.2856	-9.1e-08
x1 = 0.3317	-1.05e-07
x1 = 0.372	-1.12e-07
x1 = 0.3949	-1.25e-07
x1 = 0.4236	-1.35e-07
x1 = 0.4639	-1.48e-07
x1 = 0.5213	-1.61e-07
x1 = 0.5903	-1.71e-07
x1 = 0.6394	-1.71e-07
x1 = 0.6765	-1.68e-07
x1 = 0.7225	-1.59e-07
x1 = 0.7686	-1.42e-07
x1 = 0.8031	-1.23e-07
x1 = 0.8492	-1e-07
x1 = 0.8837	-7.8e-08
x1 = 0.9124	-5.5e-08
x1 = 0.9411	-3.3e-08

CCCO [propan-1-ol]
Conditions	refractive index
[1]	1.3835

[2]
Conditions	mass density [kg/m3]
298.15 K	799.76
308.15 K	791.48

CC(C)O [propan-2-ol]
Conditions	refractive index
[1]	1.3753

[2]
Conditions	mass density [kg/m3]
298.15 K	781.25
308.15 K	772.3
